Test results published in US5792444A, “Labeled chemotactic peptides to image focal sites of infection or inflammation” (The General Hospital Corporation, priority 1993, dated 1998).
pEC50, pIC50: −log10 of the molar value. Where two headings read alike, the source gives them in different places. *1 amine or outer side, *2 acyl side, *3 side chain or, on linkers, in order; H or OH if unused. Where a SMILES comes first, the peptide text is derived from it. Side-chain parts run from the residue outwards. [ ]: non-standard residue; d: D form. The star is where a group is joined. Isobutyloxycarbonyl = CC(C)COC(=O)*; Met(O) = CS(=O)CC[C@H](N)C(=O)O; Cha = N[C@@H](CC1CCCCC1)C(=O)O; HYNIC = NNc1ccc(C(=O)*)cn1; Nle = CCCC[C@H](N)C(=O)O; CO = O=C([*:1])[*:2]; NHPh = c1ccc(N*)cc1; NHiPr = CC(C)N*; For = O=C*

Experiments:
[1] = tested on: neutrophils / human umbilical vein endothelial cells; test: cells; assay type: cell-based
Procedure: (§1) The unconjugated peptide iBoc-MLFK was evaluated in a neutrophil-endothelial cell adhesion assay. In this assay, neutrophils (5×10^5) labeled with 5-carboxyfluorescein diacetate were added into wells of a 48 well dish containing confluent human umbilical vein endothelial cells. The iBoc-MLFK peptide was added at a concentration of 10 μM 10 min prior to stimulation of neutrophils with 30 nM ForMLF. Percent adhesion was determined by washing off unattached neutrophils after an incubation period of 25 minutes. This peptide inhibited adhesion by 66% at this concentration. Subsequently, concentrations between 0.1-3.0 μM were examined. […] Inhibition of adhesion would reduce the infiltration of leukocytes, such as neutrophils, to a diseased site, thereby limiting the tissue damage associated with inflammation.
(§2) The procedure of Example 5 was repeated for additional CP's within the scope of the present invention. The results are shown in Table I. In the table, MPO is myeloperoxidase assay, a "-" sign means there was no effect at 30 μM, a "+" sign means there was a positive effect at 30 μM, and "N.T." means "Not

[2] = tested on: neutrophils / human umbilical vein endothelial cells; test: Adhesion agonist (neutrophil-endothelial cell adhesion assay); assay type: cell-based; conditions: read-out: Adhesion Agonist EC50
Procedure: as §1, §2

neutrophils [3] = biological target: T1, neutrophils (Homo sapiens, UniProt P21462); test: Binding (Table I, Cell Biology Data); conditions: for Binding EC50: class symbol
T1 sequence (P21462 1-350): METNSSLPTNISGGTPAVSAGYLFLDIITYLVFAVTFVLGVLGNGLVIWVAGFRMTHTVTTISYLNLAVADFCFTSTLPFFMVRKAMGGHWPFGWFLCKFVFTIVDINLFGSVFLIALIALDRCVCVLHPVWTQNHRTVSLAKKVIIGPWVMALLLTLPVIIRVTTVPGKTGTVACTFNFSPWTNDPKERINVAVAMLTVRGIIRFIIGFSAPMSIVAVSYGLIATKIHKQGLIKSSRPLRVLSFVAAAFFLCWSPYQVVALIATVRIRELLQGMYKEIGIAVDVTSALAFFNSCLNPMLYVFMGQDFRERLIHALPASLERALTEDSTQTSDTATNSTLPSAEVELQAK
Excerpt: Three non-DTPA derivatized peptides were included in the assay for comparison.

E. coli infection = tested on: E. coli infection; parameters: species or system New Zealand white rabbits; conditions: rabbit, in vivo
Procedure: Male New Zealand white rabbits weighing 2.2-3.0 kg were used in all studies. E. coli from a single clinical isolate were grown overnight on trypticase soy agar plates and individual colonies were diluted with sterile normal saline to produce a turbid suspension containing approximately 1×10^11 organisms/0.5 mL (determined with a spectrophotometer). A 0.5 mL inoculum of the bacterial suspension was injected deep in the left thigh muscle of the rabbits.
Twenty four hours after inoculation, rabbits with gross swelling in the infected thigh were injected with the radiopharmaceuticals through a lateral ear vein. Six animals were injected with a mixture of 1 mCi ^99m Tc-HP (>5,000 mCi/μMole) and 0.05 mCi of ^111 In labeled white blood cells.
At 3, 6, and 18 hours after injection of the radiolabeled reagents, the animals were anesthetized with ketamine/xylazine (15.0 and 1.5 mg/kg) and anterior whole body scintigrams were acquired using a large field of view gamma camera equipped with a parallel hole medium energy collimator interfaced to a dedicated computer system (Technicare Gemini 700, Technicare 560, Solon, Ohio). ^111 In and ^99m Tc images were acquired simultaneously in dual photon mode with 15% windows centered on photopeaks at 140 KeV for ^99m Tc and 247 KeV for ^111 In. At 3 and 6 hours after injection, two sets of images were acquired for a preset time of 5 minutes/view. At 18 hours after injection, the imaging time was extended to 10 minutes per view. Regions of interest were drawn over the area of infection and the contralateral normal muscle (background). The results were expressed as target-to-background ratios (infected thigh/contralateral thigh).
After acquiring the final images, the animals were sacrificed with an overdose of sodium pentobarbital and biodistribution was determined. Samples of blood, heart, lung, liver, spleen, kidney, adrenal, stomach, GI tract, testes, bone, bone marrow, normal muscle, infected muscle, and pus were weighed and radioactivity was measured with a well type gamma counter (LKB model #1282, Wallac Oy, Finland). To correct for radioactive decay and permit calculation of the concentration of radioactivity in each organ as a fraction of the administered dose, aliquots of the injected doses were counted simultaneously. The results were expressed as percent injected dose per gram (%I.D./g), infected to normal muscle ratios, and pus to normal muscle ratios.
To determine the nature of the radioactivity in the circulation and at the site of infection, the blood and pus samples were fractionated by gradient centrifugation on Lymphoprep. The plasma was further fractionated on a column of Sephadex G-100 (1.0×25 cm) eluted with PBS, pH 7.4. […]

[4] = biological target: T2, chemoattractant receptor on human PMN's (Homo sapiens, UniProt P21462); test: For-MLF receptor binding assay (For-ML[3H]F displacement); conditions: 15 nM For-ML[3H]F, 45 min, 24° C.
T2 construct: endogenous in cells; host or cells: isolated human PMN's (neutrophils) from healthy volunteers, intact cells
T2 sequence (P21462 1-350): T1 sequence (P21462 1-350)
Procedure: Following incubation, the cells were filtered onto glass fiber discs (Whatman GF/C; Whatman, Inc., Clifton, N.J.) which were then washed with 20 mL of ice cold incubation buffer. The filters were placed in scintillation vials with 10 mL of Safety-Solve (Research Products International Corp., Mt. Prospect, Ill.) and radioactivity was measured by liquid scintillation spectroscopy. Specific binding is defined as total binding minus nonspecific binding. Nonspecific binding is the amount of residual bound radioactivity in the presence of 10 μM unlabeled For-MLF.
The chemical purity of the final product was evaluated by TLC, HPLC, UV spectroscopy, mass spectroscopy, and amino acid analysis. Determinations of the EC50 's for binding to the chemoattractant receptor on human PMN's and superoxide generation were performed as described in Pike, M. C., and Snyderman, R., Methods Enzymol. 162:236-245 (1988); Pike, M. C., et al., Blood 67:909-913 (1986); and Fischman, A. J., et al., J. Nucl. Med. 32:483-491 (1991).

neutrophils [5] = biological target: T1, neutrophils; test: Free radicals agonist (neutrophil free radical chemiluminescence); assay type: cell-based; conditions: class symbol
neutrophils [6] = biological target: T1, neutrophils; test: Free radicals antagonist (inhibition of ForMLF stimulated free radical chemiluminescence); assay type: cell-based
[7] = read-out: Adhesion Antagonist IC50

`CC(C)C[C@H](NC(=O)OCC1c2ccccc2-c2ccccc21)C(=O)O` [Example 11, FMOC-Leucine] showed a pIC50 ([1]; Homo sapiens, read-out: Adhesion Antagonist IC50) of 4.70.

`CSCC[C@H](NC(=O)c1ccc[nH]1)C(=O)N[C@@H](CC(C)C)C(=O)N[C@@H](Cc1ccccc1)C(=O)O` [Example 25, Pyrrole-M--L--F] showed a pIC50 [1, 7] of 5.21.

For `NNc1ccc(C(=O)O)cn1` [Example 26, Hynic], the pEC50 ([2]; Homo sapiens) was less than 4.52.

`CSCC[C@H](NC(=O)NC(C)C)C(=O)N[C@@H](CC(C)C)C(=O)N[C@@H](Cc1ccccc1)C(=O)N[C@@H](CCCCNC(=O)[C@H](CC(=O)O)NC(=O)c1ccc(NN)nc1)C(=O)O` [Example 29, i-proplyurea-MLF--Lys--Asp--SHNH] ({NHiPr-CO}-MLFK([Asp-HYNIC])-OH; C-terminus assumed) was tested, and the pEC50 [2] was 6.14 and the pIC50 [1, 7] was less than 4.52.

For `CSCC[C@H](NC(=O)NC(C)C)C(=O)N[C@@H](CC(C)C)C(=O)N[C@@H](Cc1ccccc1)C(=O)NCCCNC(=O)c1ccc(NN)nc1` [Example 30, N-i-propylurea-MLF-propanediamine-SHNH], the pEC50 ([2]; class symbol) was less than 4.52 and the pIC50 [1, 7] was less than 4.52.

`CSCC[C@H](NC(=O)NC(C)C)C(=O)N[C@@H](CC(C)C)C(=O)N[C@@H](Cc1ccccc1)C(=O)NCCCNC(=O)[C@H](CC(=O)O)NC(=O)c1ccc(NN)nc1` [Example 31, i-propylurea-MLF-n-propyldiamine-Asp--SHNH] was tested, and the pEC50 [2] was 5.96 and the pIC50 [1, 7] was less than 4.52.

Compound `CSCC[C@H](NC(=O)Nc1ccccc1)C(=O)N[C@@H](CC(C)C)C(=O)N[C@@H](CC1CCCCC1)C(=O)O` [Example 34] ({NHPh-CO}-Met-Leu-[Cha]-OH) has a pEC50 ([2]; class symbol) greater than 4.52.

For `CSCC[C@H](NC(=O)OCC(C)C)C(=O)N[C@@H](CC(C)C)C(=O)N[C@@H](Cc1ccccc1)C(=O)N[C@@H](CCCCN)C(N)=O` [Example 41, iBoc--MLFK] (Isobutyloxycarbonyl-MLFK-NH2), the pIC50 [1] was roughly 4.85.

For `CCCC[C@H](NC(=O)OCC(C)C)C(=O)N[C@@H](CC(C)C)C(=O)N[C@@H](Cc1ccccc1)C(=O)N[C@@H](CCCCN)C(N)=O` [Example 49, iBoc--Nle--LFK] (Isobutyloxycarbonyl-[Nle]LFK-NH2), the “Binding EC50” value (neutrophils [3]) was “? --”.

For `CC(C)COC(=O)N[C@@H](CC[S+](C)[O-])C(=O)N[C@@H](CC(C)C)C(=O)N[C@@H](Cc1ccccc1)C(=O)N[C@@H](CCCCN)C(N)=O` (stereo partly shown) [Example 50, iBoc--M(O)--LFK] (Isobutyloxycarbonyl-[Met(O)]LFK-NH2), the “Binding EC50” value (neutrophils [3]) was “? --”.

With `CSCC[C@H](NC=O)C(=O)N[C@@H](CC(C)C)C(=O)N[C@@H](Cc1ccccc1)C(=O)O` [Example 59, N-formyl-methionyl-leucyl-phenylalanine, reference compound] the pEC50 [2] was 8.15.

`CCCCNC(=O)N[C@@H](CCSC)C(=O)N[C@@H](CC(C)C)C(=O)N[C@@H](Cc1ccccc1)C(=O)O` [Example 65, N-butylurea-MLF] was tested, and the pEC50 ([2]; class symbol) was greater than 4.52.

Compound `CCCCC(=O)N[C@@H](CCSC)C(=O)N[C@@H](CC(C)C)C(=O)N[C@@H](Cc1ccccc1)C(=O)O` [Example 79, n-butyl-amidyl-MLF] has a pEC50 ([2]; class symbol) of less than 4.52 and a pIC50 [1, 7] of 5.02.

`CSCC[C@H](NC(N)=O)C(=O)N[C@@H](CC(C)C)C(=O)N[C@@H](Cc1ccccc1)C(=O)O` [Example 98, N-hydrourea-MLF] gave a pEC50 [2] of 6.21.

With `CSCC[C@H](NC=O)C(=O)N[C@@H](CC(C)C)C(=O)N[C@@H](Cc1ccccc1)C(=O)N[C@@H](CCCCNC(=O)c1ccc(NN)nc1)C(=O)O` [Example 99mTc-HP, Formyl-Methionyl-Leucyl-Phenylalanyl-Lysyl-hydrazininicotinamide, metal not drawn] (For-MLFK(HYNIC)-OH) the “binding to red blood cells” value (E. coli infection) was less than 2%, the “circulating radioactivity associated with leukocytes” value (E. coli infection) was ~ 25% and the “plasma radioactivity not bound to WBC's eluting with apparent molecular weight of 150,000 (IgG fraction)” value (E. coli infection) was greater than 95%. For the same compound, the “radioactivity of pus associated with WBC's” value (E. coli infection) was “approximately 90%”.

In the case of `CCCC[C@H](NC=O)C(=O)N[C@@H](CC(C)C)C(=O)N[C@@H](Cc1ccccc1)C(=O)O` [For-NleLF, N-formyl-norleucyl-leucyl-phenylalanine] (For-[Nle]-Leu-Phe-OH), the pEC50 [4] was 6.52.

Work on “Isopropylurea-FLFLF--Lys--Lys--SHNH [Example 18]” yielded a pEC50 (neutrophils [3]) of 4.80, a pEC50 (neutrophils [5]) of less than 4.52 and a pIC50 (neutrophils [6]) of 4.53.

Leu--Ala--SHNH--Boc [Example 8] was tested, and the pEC50 (neutrophils [3]) was less than 4.00 and the pEC50 (neutrophils [5]) was less than 4.52.

Work on “N(N-isopropylurea-FLFLF-Propanediamine-SPNH [Example 94]” yielded a pEC50 (neutrophils [3]) of 6.38, a pEC50 (neutrophils [5]) of less than 4.52 and a pIC50 (neutrophils [6]) of 5.30. The pEC50 ([2]; class symbol) was less than 4.52.

For iBoc--MLF--S--SPNH [Example 39], the pEC50 (neutrophils [3]) was 4.66 to 6.22, the pEC50 (neutrophils [5]) was less than 4.52 and the pIC50 (neutrophils [6]) was 5.46 to 5.52. It also gave a pIC50 [1, 7] of less than 4.52.

iBoc--MLF--SPNH [Example 37] showed a pEC50 (neutrophils [3]) of 5.30 to 6.82, a pEC50 (neutrophils [5]) of less than 4.52 and a pIC50 (neutrophils [6]) of 4.52 to 5.00. For the same compound, the pIC50 [1, 7] was less than 4.52.
